Experimental data as given in patent publication EP3723745B1, “PHENOXY ACIDS FOR THE TREATMENT OF NEUROMUSCULAR DISORDERS” (NMD Pharma A/S, priority 2017, dated 2019).

Legend:
[1] = tested on: soleus muscles; assay: Measurement of force in an in vitro model: isolated rat nerve-muscle preparation with tubocurarine; conditions: Rattus norvegicus, 40 min; percentage of initial force restored after 40 mins with 50 µM test compound; tubocurarine (115 nM) for 90 mins; read-out: Point increase
[2] = biological target: T1, CIC-1 channels (Rattus norvegicus, UniProt P35524); assay: Electrophysiological measurement of compound inhibition of CIC-1 in rat muscle (Gm, three micro-electrodes technique); assay type: cell-based; conditions: reduction of Gm in fibres of whole rat soleus muscles, approx. 30°C; n = number of experiments
T1 construct: from tissue; host or cells: intact soleus muscle of 12-14-week old Wistar rats
T1 sequence (P35524 1-994): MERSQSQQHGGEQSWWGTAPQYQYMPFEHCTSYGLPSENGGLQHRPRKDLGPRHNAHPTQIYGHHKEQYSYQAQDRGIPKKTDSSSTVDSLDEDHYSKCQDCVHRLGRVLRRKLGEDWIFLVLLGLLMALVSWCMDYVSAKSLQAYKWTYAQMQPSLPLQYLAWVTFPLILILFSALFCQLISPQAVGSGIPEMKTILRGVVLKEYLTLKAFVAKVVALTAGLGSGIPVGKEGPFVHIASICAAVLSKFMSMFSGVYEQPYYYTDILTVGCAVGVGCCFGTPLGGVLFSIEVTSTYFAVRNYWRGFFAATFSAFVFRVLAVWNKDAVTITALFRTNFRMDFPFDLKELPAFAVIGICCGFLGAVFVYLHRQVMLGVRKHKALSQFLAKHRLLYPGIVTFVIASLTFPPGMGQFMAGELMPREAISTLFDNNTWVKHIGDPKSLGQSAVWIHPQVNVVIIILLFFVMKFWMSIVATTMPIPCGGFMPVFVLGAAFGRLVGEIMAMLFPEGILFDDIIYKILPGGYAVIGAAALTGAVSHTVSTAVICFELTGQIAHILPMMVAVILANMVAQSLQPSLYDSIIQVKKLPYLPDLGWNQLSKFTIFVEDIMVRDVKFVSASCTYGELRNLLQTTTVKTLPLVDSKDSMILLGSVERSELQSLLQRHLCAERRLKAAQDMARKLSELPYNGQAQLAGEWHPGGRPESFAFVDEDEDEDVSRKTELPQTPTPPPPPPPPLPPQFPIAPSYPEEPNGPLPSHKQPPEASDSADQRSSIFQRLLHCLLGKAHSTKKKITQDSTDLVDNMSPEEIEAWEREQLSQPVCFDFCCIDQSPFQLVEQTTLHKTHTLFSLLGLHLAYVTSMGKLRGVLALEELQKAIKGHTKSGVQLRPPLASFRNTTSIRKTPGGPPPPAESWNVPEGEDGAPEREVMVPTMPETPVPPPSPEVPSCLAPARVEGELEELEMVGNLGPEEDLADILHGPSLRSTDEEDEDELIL
Excerpt: Table 2: Inhibition of CIC-1 ion channel using compounds of the invention

EC50 [2]	Structure (SMILES)	activation at 50 µM [1]
4.5 µM	CC(C)[C@H](Oc1ccc(Br)cc1F)C(=O)O [Compound A-27, (2S)-2-(4-bromo-2-fluorophenoxy)-3-methylbutanoic acid]	46%
4.5 ± 0.8 µM	O=C(O)[C@H](CCF)Oc1ccc(Br)cc1 [Compound A-87, (2S)-2-(4-bromophenoxy)-4-fluorobutanoic acid]	37%

Structure (SMILES)	EC50 [2]	activation at 50 µM [1]
[2H][C@@](CC)(Oc1ccc(Br)cc1)C(=O)O [Compound A-60, (2S)-2-(4-bromophenoxy)(2-^2H)butanoic acid]	7.5 ± 1 µM	62%
